Test results: patent publication US6406870B2, “Methods and compositions for modulating heterotypic E-cadherin interactions with T lymphocytes” (The Brigham and Women's Hospital, Inc., priority 1994, dated 2002)

B1: IL-4: interleukin, cytokine (protein, UniProt P05112 25-153, looked up)
Interleukin-4: HKCDITLQEIIKTLNSLTEQKTLCTELTVTDIFAASKNTTEKETFCRAATVLRQFYSHHEKDTRCLGATAQQFHRHKQLIRFLKRLDRNLWGLAGLNSCPVKEANQSTLENFLERLKTIMREKYSKCSS

Tests used:
[1] = tested on: IEL adhesion to 16E6.A5 epithelial cells; assay: IEL adhesion to 16E6.A5 epithelial cell monolayers; assay type: cell-based, human; details: epithelial cell monolayers pretreated with cytokine
Method: Monolayers of adherent cells were grown in flat bottomed 96-well Linbro tissue culture plates. 10^4 adherent cells in 100 μl complete media were added per well and allowed to grow for two to three days until they reached confluence. Just prior to the addition of IEL or transfected COS 7 cells, the adherent cell monolayers were washed with assay media. To label IEL and COS-7 cells, 25 μg of 2′,7′-bis-(2-carboxyethyl)-5 (and -6)-carboxyfluorescein (BCECF-AM, Molecular Probes, Inc., Eugene, Oreg.) was diluted in 5 μl DMSO and added to a suspension of 5×10^6/ml IEL or COS-7 cells in complete media. The cells were incubated at 37° C. for 25 minutes then washed twice in assay media (PBS containing 1 mM CaCl2, 2 mM MgCl2 and 10 mM HEPES). After washing, 50,000 labeled IEL or COS-7 cells in 100 μl of assay media were added to the adherent cell monolayers. IEL or COS-7 cells were allowed to settle onto adherent cell monolayers for 25 or 40 min. at 37° C. Unbound cells were removed by flicking media from the plate. Bound cells were detected using a Fluorescence plate reader (IDEXX Co., Portland, Me.). If antibody blocking was performed, the IEL, COS-7 cells, epithelial cell monolayers, or L-M monolayers were pre-incubated with a 1:250 dilution of ascites fluid or 10 μg/ml of purified mAb for five minutes at 37° C. prior to encounter with the second cell type. At least four replicates were performed. The % cells bound was calculated by reading the fluorescence units obtained after unbound cells were washed off, dividing this number by the input fluorescence units and multiplying by 100. […] In adhesion assays where divalent cations were varied, the IEL were washed with Ca^++ and Mg^++ free Hank's balanced salt solution (HBSS) and pre-equilibrated with HBSS containing the indicated concentrations of MgCl2, MnCl2, or CaCl2 for 10 min. at 37° C. prior to incubation with 16E6.A5 monolayers which had been washed with Ca^++ and Mg^++ free HBSS. Disruption of T84 cell intercellular tight junctions.
The 16E6.A5 cell line was derived by immortalization of the 76N normal epithelial cell line through transfection of the E6 and E7 genes of human papilloma virus (by V. Band, Tufts University, publically available). Monolayers of these adherent cells are grown in flat-bottomed 96-well Linbro tissue culture plates. […] Bound cells are detected using a Fluorescence plate reader (IDEXX Co., Portland Me.). […] The % cells bound is calculated by reading the fluorescence units obtained after unbound cells are washed off and dividing this number by the input fluorescence units obtained after adding 50,000 cells/well and multiplying by 100. Serial dilutions of labeled cells have shown that as few as 1000 cells can be detected in the linear range.

[2] = tested on: homotypic E-cadherin adhesion; details: soluble recombinant protein produced in insect cells; cited from earlier work
[3] = tested on: integrin expression on IEL lines; assay: FACS analysis of integrin expression on cultured IEL; assay type: cell-based, human; details: culture of IEL lines with TGF-β1
Text: Human intestinal tissue was obtained from fatal accident organ donors or from adult patients undergoing resection for colorectal carcinoma, from sections at least 10 cm away from macroscopically detectable lesions. IEL were isolated as described previously (Davies M. D. J. et al. (1981) Gut 22:481; Parker C. et al. (1992) Proc. Natl. Acad. Sci. USA 89:1924). once isolated, the IEL were stimulated with phytohemagglvtinin-P (PHA:Difco) and irradiated feeder cells (80% peripheral blood mononuclear cells and 20% JY lymphoblastoid cells) in Yssel's medium (Yssel H. et al. (1984) J. Immunol. Methods 72:219) containing 2 nM recombinant interleukin (IL)-2 (gift of Ajinomoto, Kawasaki, Japan), 4% (vol/vol) conditioned medium (Brenner M. et al. (1987) J. Immunol. 138:1502), 4% (vol/vol) fetal calf serum (Hyclone), and 50 AM 2-mercaptoethanol at 10% Co2. […] Two different anti-CD8 mAb (OKT8, CD8α; and T8/2T85H7, CD8β) were used to discriminate between expression of the CD8 αα homodimer and the CD8 αβ heterodimer. In agreement with previously reported data (Jarry A. et al. (1990) Eur. J. of Immunol. 20(5):1097), 10% of the CD8^+ cells expressed the homodimer. Thus, the lines were thought to be highly purified IEL preparations. Long term culture of the 032891 and 390I IEL lines was maintained by intermittent restimulation with PHA and irradiated feeder cells. In single color FACS analysis, the long term 032891 cell line was 99% CD3^+, 99% T cell receptor αβ positive, and 99% CD8 αβ positive. The 390I cell line was 99% CD3^+, 99% T cell receptor αβ positive, and 99% CD8 αβ positive and 6% CD4 positive. […]
FACS analysis was performed by suspending 2.5×10^5 cells in 100 μl of staining buffer (PBS, 1% BSA, 4% human serum, 0.02% NaN3) containing saturating concentrations of mAbs and incubating for 1 hr. at 4° C. […] Biotin-conjugated mAbs were used to stain the second molecule which was visualized by PE-conjugated streptavidin (Becton Dickinson & Co., Mountain View, Calif. Viable cells were analyzed using the FACScan or FACSort flow cytometer (Becton Dickinson & Co.).

Molecule	effect on IEL-to-epithelial cell adhesion [1]	further results
TNF-α	no effect	–
IL-1B: interleukin, cytokine	no effect	–
Recombinant human E-cadherin: recombinant human E-cadherin containing nearly the entire extracellular domain, produced in insect cells (Herrenknecht and Kemler)	–	blocking of homophilic E-cadherin mediated cell-cell binding [2]: failed to block
IFN-γ: interferon, cytokine	increased adhesion	–
TGF-β1: transforming growth factor-beta 1	–	expression of α^Eβ7 on IEL lines [3]: dramatically up-regulated; expression of α^Lβ2 on IEL lines [3]: down regulated; expression of β1 and its associated α chains on IEL lines [3]: little effect
B1	no effect	–
